Data reported in article PMC12089509, “NorA Efflux Pump Inhibitors: Expanding SAR Knowledge of Pyrazolo[4,3‐c][1,2]benzothiazine 5,5‐Dioxide Derivatives” (Archiv Der Pharmazie, 2025).
In brackets after ≈: the same amount, converted by molar mass. Like-named read-outs stand apart in the source and are kept apart here.

Assays:
[1] = system: Staphylococcus aureus SA-1199B; assay: MIC determination (broth microdilution) against SA-1199B; format: cell-based; conditions: SA1199B
Text: (§1) In this study, the S. aureus strains SA‐1199B (overexpressing norA) and its isogenic parent SA‐1199 (wild type), the pair SA‐K1902 (norA‐depleted) and SA‐K2378 (complemented with a pCU1 plasmid harboring the norA promoting and coding region from SA‐1199B), were used to test EPI activity as described in a previous study. Furthermore, the S. aureus ATCC 29213 was used as the reference strain in MIC determination experiments.

[2] = system: S. aureus SA-K1902 (norA-); assay: MIC evaluation against SA-K1902; format: cell-based, Staphylococcus aureus; conditions: for MIC: Staphylococcus aureus
Text: (§2) Conversely, interesting results were obtained against SA‐K2378, which overexpresses the norA gene (Table 2). […] This corroborates the hypothesis that their activity is strictly related to NorA EP inhibition.
as §1

[3] = system: S. aureus SA-K2378 (norA ++); assay: MIC evaluation against SA-K2378; format: cell-based, Staphylococcus aureus; conditions: for MIC: Staphylococcus aureus
Text: as §2, §1

[4] = system: Staphylococcus aureus SA-K2378 biofilm; format: cell-based
Text: The formation of biofilms is a significant contributor to the development of AMR [1, 26, 27]. This is due to the fact that biofilms provide a protective environment for bacteria, thereby rendering them more resilient to the effects of common antibacterial agents. Over the years, several investigations have been conducted to study the role of EPs in the various stages of microbial biofilm formation. However, a definitive answer regarding the potential role of EPs in this microbial pathway remains elusive. While some studies have reported a negative effect of certain EPs on biofilm formation, others have highlighted the promising role of EPIs in limiting biofilm formation and enhancing the efficacy of antibiotics under biofilm conditions.
The biofilm production by SA‐K1902 and SA‐K2378 strains was analyzed in flat 96‐well microtiter plates as previously described, with some modifications. […] The microplates were incubated at 37°C for 24 h in static conditions. After incubation, the biofilms were washed three times with distilled water, dried at 60°C for 1 h, and stained with 0,1% crystal violet for 10 min. After staining, the crystal violet was removed and the wells were washed three times with water, dried at 37°C for 30 min, and the bound crystal violet was solubilized with 96% ethanol in shaking conditions. At the end of the destaining, the absorbance (570 nm) of the solutions in each well was measured using the FLUOstar Omega plate reader (BMG‐LABTECH, Germany) to quantify the biofilm produced in each condition compared with the control (biofilm produced by the strain without any compound/antibiotic). Biofilm assays were performed in triplicate for each condition.

[5] = target: T1, S. aureus NorA efflux pump (SA-1199B strain, overexpresses the norA gene) (Staphylococcus aureus, UniProt P0A0J7); assay: EtBr efflux inhibition assay; format: cell-based; conditions: for inhibition at 10 µM: read-out: EtBr efflux inhibition (%), compound at 10 µM, SA-1199B; for inhibition at 50 µM: read-out: EtBr efflux inhibition (%), compound at 50 µM, SA-1199B
T1 construct: endogenous in cells; host or cells: S. aureus SA-1199B (overexpresses norA; isogenic parent SA-1199)
T1 sequence (P0A0J7 whole entry): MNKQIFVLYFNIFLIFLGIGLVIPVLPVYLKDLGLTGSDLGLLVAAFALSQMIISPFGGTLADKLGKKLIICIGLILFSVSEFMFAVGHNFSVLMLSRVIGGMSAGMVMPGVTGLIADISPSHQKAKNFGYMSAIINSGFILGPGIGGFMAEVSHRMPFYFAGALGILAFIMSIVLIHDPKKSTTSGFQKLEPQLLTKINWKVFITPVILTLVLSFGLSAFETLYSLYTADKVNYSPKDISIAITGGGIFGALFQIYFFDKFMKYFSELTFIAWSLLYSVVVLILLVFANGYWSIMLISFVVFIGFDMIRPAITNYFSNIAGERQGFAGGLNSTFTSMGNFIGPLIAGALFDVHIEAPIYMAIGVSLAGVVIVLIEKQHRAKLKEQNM
Protocol: EtBr efflux inhibition assays were conducted using the S. aureus SA‐1199B strain, which overexpresses the norA gene and has an A116E GrlA substitution. Each compound was tested at 50 µM (see Figure 2). The starting hit compound 1 was used as the internal standard for comparison with the previously reported data.
The cells were grown overnight in cation‐supplemented Mueller–Hinton broth (CAMHB) without any additives at 35°C. The organisms were subsequently diluted into CAMHB to obtain an optical density at 600 nm (OD600) of 0.7–0.8. Subsequently, the cells were pelleted and resuspended at an OD600 of 0.8 in 0.5 mL aliquots of CAMHB containing EtBr and carbonyl cyanide m‐chlorophenylhydrazone (CCCP) to “load” the cells with EtBr (final concentrations of 25 μM for EtBr and 100 μM for CCCP). Following 20 min of incubation at room temperature, the cells were pelleted and resuspended in 1 mL of fresh CAMHB. Immediately thereafter, 200 μL aliquots were transferred into the wells of white 96‐well plates, which either lacked or contained 50 or 10 μM of each test compound. Fluorescence was monitored continuously using a microplate reader (Infinite M200 Pro, TECAN) at excitation and emission wavelengths of 485 and 645 nm, respectively, for a period of 5 min. The experiments were conducted in triplicate, with two technical replicates per biological replicate. The efflux activity of the SA‐1199B strain was expressed as a percentage of fluorescence decrease over a 5‐min time course. The inhibition of this efflux by the test compounds was determined using the following equation: ([efflux in the absence] ‐ [efflux in the presence of test [compound])/[efflux in the absence of test compound] × 100, which yielded the percent efflux inhibition observed.
^a Experiments were performed in triplicate with two technical replicates per biological replicate. Efflux activity of SA-1199B was expressed as percent fluorescence decrease over a 5 min time course. Inhibition of this efflux by test compounds was determined using the equation [efflux in the absence] − [efflux in the presence of test [compound]/[efflux in the absence of test compound] × 100, giving the percent efflux inhibition observed.

[6] = system: Staphylococcus aureus SA-1199B; format: cell-based
Text: For purposes of comparison, compound 1 was included as a reference.

[7] = system: S. aureus SA-K1902 (norA-); assay: Checkerboard assay EPI/CPX against SA-K1902; format: cell-based, Staphylococcus aureus
Protocol: (§3) Checkerboard assays were carried out using SA‐K1902 and SA‐K2378 strains according to standard procedures.

[8] = system: S. aureus SA-K2378 (norA ++); assay: Checkerboard assay EPI/CPX against SA-K2378; format: cell-based, Staphylococcus aureus
Protocol: as §2, §3

[9] = MTT cytotoxicity assay on A549; format: cell-based; conditions: human, A549 cells, read-out: Cytotoxicity (% cell viability)
Protocol: (§4) The MTT assay was performed on two human ATCC cell lines, that is, […] (CCL‐185) and MCF7 (HTB‐22), to test the potential cytotoxic effect of the compounds, after 72 h exposure, as previously described. Each compound was tested at concentrations ranging from 12.5 to 100 μg/mL. Untreated cells were considered as controls. The percentage of viable cells was calculated as follows: % Cell viability = 100 × treated well absorbance/untreated control well absorbance. All assays were performed once in technical quadruplicate.

[10] = MTT cytotoxicity assay on MCF7; format: cell-based; conditions: human, MCF7 cells, read-out: Cytotoxicity (% cell viability)
Protocol: as §4

[11] = system: S. aureus SA-1199 (wild type); assay: MIC determination against wild-type SA-1199; format: cell-based; conditions: Staphylococcus aureus, compound alone
Text: (§5) This finding aligns with their mechanism of action, which involves the inhibition of NorA, which is only basally expressed in the wild‐type SA‐1199 strain.

[12] = system: S. aureus SA-1199 (wild type); assay: Synergistic assay with CPX against wild-type SA-1199; format: cell-based, Staphylococcus aureus; conditions: EPI at 3.13 µg/mL with CPX
Text: as §5

O=C(O)c1cn(C2CC2)c2cc(N3CCNCC3)c(F)cc2c1=O [CPX, ciprofloxacin, reference compound]
MIC [1]: 10 µg/mL (≈ 30.2 µM) | CPX MIC ([2]; CPX alone, SA-K1902 (norA-)): 0.15 µg/mL | CPX MIC ([3]; CPX alone, SA-K2378 (norA ++)): 1.25 µg/mL | increase in biofilm formation ([4]; CPX alone at ½ MIC, vs untreated control): 42%

O=[N+]([O-])c1ccc(-n2nc(-c3ccc(Cl)cc3)c3c2-c2ccccc2S(=O)(=O)N3)cc1 [Compound 1, reference compound]
inhibition at 10 µM [5]: 0% | inhibition at 50 µM [5]: 77% | MIC [1]: 50 µg/mL (≈ 110 µM) | N° fold CPX MIC reduction ([6]; EPI at 3.12 µg/mL): 2 fold | N° fold CPX MIC reduction ([6]; EPI at 6.25 µg/mL): 8 fold | N° fold CPX MIC reduction ([6]; EPI at 12.5 µg/mL): 16 fold | MIC [2]: 12.5 µg/mL (≈ 27.6 µM) | CPX MIC ([7]; EPI at 0.8 µg/mL): 0.15 µg/mL | N° CPX MIC reduction ([7]; EPI at 0.8 µg/mL): 0 | CPX MIC ([7]; EPI at 1.6 µg/mL): 0.15 µg/mL | N° CPX MIC reduction ([7]; EPI at 1.6 µg/mL): 0 | CPX MIC ([7]; EPI at 3.13 µg/mL): 0.15 µg/mL | N° CPX MIC reduction ([7]; EPI at 3.13 µg/mL): 0 | MIC [3]: 12.5 µg/mL (≈ 27.6 µM) | CPX MIC ([8]; EPI at 0.8 µg/mL): 0.6 µg/mL | N° CPX MIC reduction ([8]; EPI at 0.8 µg/mL): 2 | CPX MIC ([8]; EPI at 1.6 µg/mL): 0.3 µg/mL | N° CPX MIC reduction ([8]; EPI at 1.6 µg/mL): 4 | CPX MIC ([8]; EPI at 3.13 µg/mL): 0.3 µg/mL | N° CPX MIC reduction ([8]; EPI at 3.13 µg/mL): 4 | viability at 72 h, 12.5 µg/mL ([9]; A549, 12.5 μg/mL): 90 ± 16% | viability at 72 h, 25 µg/mL ([9]; A549, 25 μg/mL): 76 ± 1% | viability at 72 h, 50 µg/mL ([9]; A549, 50 μg/mL): 32 ± 5% | viability at 72 h, 100 µg/mL ([9]; A549, 100 μg/mL): 8 ± 1% | viability at 72 h, 12.5 µg/mL ([10]; MCF7, 12.5 μg/mL): 81 ± 6% | viability at 72 h, 25 µg/mL ([10]; MCF7, 25 μg/mL): 71 ± 3% | viability at 72 h, 50 µg/mL ([10]; MCF7, 50 μg/mL): 50 ± 3% | viability at 72 h, 100 µg/mL ([10]; MCF7, 100 μg/mL): 43 ± 3%

CN1c2c(-c3ccc(F)cc3)nn(C)c2-c2ccc(OCCN3CCOCC3)cc2S1(=O)=O [Compound 19, 3‐(4‐Fluorophenyl)‐1,4‐dimethyl‐7‐(2‐morpholin‐4‐ylethoxy)‐1,4‐dihydropyrazolo[4,3‐c][1,2]benzothiazine 5,5‐dioxide]
inhibition at 10 µM [5]: 34% | inhibition at 50 µM [5]: > 70% | MIC [1]: > 50 µg/mL | N° fold CPX MIC reduction ([6]; EPI at 3.12 µg/mL): 2 fold | N° fold CPX MIC reduction ([6]; EPI at 12.5 µg/mL): 4 fold | MIC [11]: > 50 µg/mL | synergistic effect with CPX [12]: did not show any synergistic effect | MIC [2]: > 50 µg/mL | CPX MIC ([7]; EPI at 0.2 µg/mL): 0.08 µg/mL | N° CPX MIC reduction ([7]; EPI at 0.2 µg/mL): 2 | CPX MIC ([7]; EPI at 0.4 µg/mL): 0.08 µg/mL | N° CPX MIC reduction ([7]; EPI at 0.4 µg/mL): 2 | CPX MIC ([7]; EPI at 0.8 µg/mL): 0.08 µg/mL | N° CPX MIC reduction ([7]; EPI at 0.8 µg/mL): 2 | CPX MIC ([7]; EPI at 1.6 µg/mL): 0.08 µg/mL | N° CPX MIC reduction ([7]; EPI at 1.6 µg/mL): 2 | CPX MIC ([7]; EPI at 3.13 µg/mL): 0.08 µg/mL | N° CPX MIC reduction ([7]; EPI at 3.13 µg/mL): 2 | CPX MIC ([7]; EPI at 6.25 µg/mL): 0.08 µg/mL | N° CPX MIC reduction ([7]; EPI at 6.25 µg/mL): 2 | CPX MIC ([7]; EPI at 12.5 µg/mL): 0.15 µg/mL | N° CPX MIC reduction ([7]; EPI at 12.5 µg/mL): 0 | MIC [3]: 25 µg/mL (≈ 52.9 µM) | CPX MIC ([8]; EPI at 0.2 µg/mL): 0.3 µg/mL | N° CPX MIC reduction ([8]; EPI at 0.2 µg/mL): 4 | CPX MIC ([8]; EPI at 0.4 µg/mL): 0.3 µg/mL | N° CPX MIC reduction ([8]; EPI at 0.4 µg/mL): 4 | CPX MIC ([8]; EPI at 0.8 µg/mL): 0.3 µg/mL | N° CPX MIC reduction ([8]; EPI at 0.8 µg/mL): 4 | CPX MIC ([8]; EPI at 1.6 µg/mL): 0.3 µg/mL | N° CPX MIC reduction ([8]; EPI at 1.6 µg/mL): 4 | CPX MIC ([8]; EPI at 3.13 µg/mL): 0.3 µg/mL | N° CPX MIC reduction ([8]; EPI at 3.13 µg/mL): 4 | CPX MIC ([8]; EPI at 6.25 µg/mL): 0.16 µg/mL | N° CPX MIC reduction ([8]; EPI at 6.25 µg/mL): 8 | effect on biofilm formation in combination with CPX ([4]; EPI at 0.2 µg/mL combined with CPX, SA-K2378): no positive effects
